Reference: patent publication US20050158425A1, “Thin mouthfeel calcium-fortified beverage containing calcium lactate gluconate citrate” (PURAC BIOCHEM BV, priority 2003, published 2005)

Assays:
[1] = Hygroscopicity of powdered samples; type: physicochemical; conditions: for water pick up (hygroscopicity): 20° C., 60% relative humidity, 21 days, powdered sample; for state of powdered sample (hygroscopicity): 35° C., 70% relative humidity
Experimental: The hygroscopicities of powdered samples of calcium lactate gluconate citrate (in a ratio calcium lactate:calcium gluconate:calcium citrate of 12.7:47.8:39.5) and calcium lactate gluconate (lactate/gluconate ratio 20/80) were measured at 20° C. at 60% relative humidity and at 35° C. at 70% relative humidity. At 20° C. at 60% relative humidity both samples hardly pick up any water (about 1%) for 21 days.

[2] = Dissolution rate of calcium-fortified beverages by conductivity; type: physicochemical; conditions: 20° C.
Experimental: The dissolution rates of calcium lactate gluconate (ratio Ca lactate:Ca gluconate 80/20) and calcium lactate gluconate citrate (in a ratio calcium lactate:calcium gluconate:calcium citrate of 12.7:47.8:39.5) beverages were determined by measuring the conductivity and calculating the dissolution rate from the conductivity indices. Said beverages contained 10, and 30% R.D.I respectively in water at 20° C., 30% in apple juice at 20° C. and 10% in cranberry juice at 20° C.

Row | SMILES | water pick up (hygroscopicity) [1] | state of powdered sample (hygroscopicity) [1] | hygroscopicity ([1]; at increased temperatures) | Dissolution time in seconds (at conductivity 99.5) ([2]; Apple juice (30% RDI)) | Dissolution time in seconds (at conductivity 99.5) ([2]; Cranberry juice (10% RDI)) | Dissolution time in seconds (at conductivity 99.5) ([2]; Water (10% RDI))
1 | CC(O)C(=O)[O-].O=C([O-])[C@H](O)[C@@H](O)[C@H](O)[C@H](O)CO.[Ca+2] [calcium lactate gluconate (20/80), calcium lactate gluconate] | about 1% | completely liquefied within 2 days |  |  |  | 
2 | CC(O)C(=O)O.O=C(O)[C@H](O)[C@@H](O)[C@H](O)[C@H](O)CO.O=C([O-])CC(O)(CC(=O)[O-])C(=O)O.[Ca+2] [calcium lactate gluconate citrate] | about 1% | still had the powdered structure and appeared unchanged after 20 days | very low hygroscopicity | 30 s | 27 s | 23 s
3 | CC(O)C(=O)[O-].O=C([O-])[C@H](O)[C@@H](O)[C@H](O)[C@H](O)CO.[Ca+2] [Calcium lactate gluconate, calcium lactate gluconate] |  |  |  | 25 s | 34 s | 35 s
